Measurements taken from patent publication US8497298B2, “Use of benzo-fused heterocycle sulfamide derivatives for lowering lipids and lowering blood glucose levels” (Janssen Pharmaceutica NV, priority 2005, dated 2013).

Tests used:
[1] = test system: db/db mice; test: Female db/db Mouse Assay, Study A: single dose part and dose response part (Example 14); assay type: in vivo
Source text: 0.5% Hydroxypropyl Methylcellulose (Methocel) used as vehicle/control.
Db/db mice are susceptible to Type 2 diabetes. […] All of the mice were quarantined for a period of one week before transfer to the animal procedure room. A drop of blood (about 2 microliters) was collected by tail puncture and glucose concentration was detected with a glucometer (OneTouch UltraSmart, Lifescan, Milpitas, Calif.). […] Animals were separated and single housed at least three days prior to the drug treatments to allow acclimation to the new surroundings.
In the second, dose response part of Study A, 48 mice were allocated into 4 treatment groups of 12 mice each.
The dosing volume was 5 mL/kg body weight (0.2 mL for 40 gram mice). The mice were fed ad lib throughout the study. A necropsy was completed 18 hours after last dosing.
Blood glucose levels were measured from blood collected through tail puncture using a glucometer at 1000 hour. The mice were anaesthetized with sodium pentobarbital (1 ml/kg, intraperitoneal [i.p.] injection, SleepAway, Fort Dodge, Iowa) and blood was drawn via cardiac puncture using 1 mL syringe and collected into heparinized tubes. White adipose tissues (WAT) (retroperitoneal and inguinal fat pads), brown adipose tissure (BAT) and skeletal muscles (gastrocnemius and soleus muscle) and stomach contents were dissected and weighed. Plasma samples were obtained by centrifuging whole blood at 2000˜3000 g for 10˜20 minutes at 4° C. and stored at −20° C. for further measurement of insulin, HDL, LDL, total cholesterol and triglyceride.
Plasma insulin concentrations were measured by in both studies using the appropriate rat/mouse insulin enzyme-linked immunosorbent assay (ELISA) kit (EZRMI-13K, LINCO Research, St. Charles, Mo.). Blood samples were diluted 1:4 in charcoal stripped mouse serum that was included in the ELISA kit. The rest of the procedure followed the manufacturers instruction. The total fluorescence was detected using an Orion 1 Microplate Luminometer (Berthold Detection Systems, Pforzheim, Germany).
According to manufacturers protocol, cholesterol measurement was an enzymatic method utilizing cholesterol esterase and cholesterol oxidase conversion followed by a Trinder endpoint; Elimination/catalase method was used for HDL measurement; an enzymatic method with a Trinder endpoint was used for triglyceride measurement.
Data from both parts of the Study (single dose and dose response) was analyzed using the standard two-tailed Student's t-test and are expressed below as means and standard errors.

[2] = single dose part, rosiglitazone 20 mg/kg
[3] = single dose part, rosiglitazone 20 mg/kg positive control
[4] = single dose part, rosiglitazone 20 mg/kg, plasma

| melting point [°C] | Compound | total cholesterol concentrations elevated relative to vehicle ([1]; rosiglitazone, dose not given) [%] | Brown Adipose Tissue [1, 2] [g] | Final weight Body weight [1, 2] [g] | Final weight Stomach contents [1, 2] [g] | Inguinal fat [1, 2] [g] | Muscle [1, 2] [g] | Retroperitoneal fat [1, 2] [g] | Total chow consumption Day 1-3 [1, 2] [g] | Total chow consumption Day 4-6 [1, 2] [g] | Total chow consumption Day 7-9 [1, 2] [g] | Glucose [1, 3] [mg/dL] | Insulin [1, 3] [ng/mL] | Cholesterol [1, 4] [mg/dL] | HDL [1, 4] [mg/dL] | LDL [1, 4] [mg/dL] | Ratio (Triglyceride to HDL) [1, 4] | Triglyceride [1, 4] [mg/dL] | Ratio (fat/muscle) ([1]; single dose part, rosiglitazone 20 mg/kg, total inguinal and retroperitoneal fat/muscle weight) | weight gain ([1]; single dose part, rosiglitazone, p<0.05 vs vehicle 0.3±0.2 g) [g] |
| --- | --- | --- | --- | --- | --- | --- | --- | --- | --- | --- | --- | --- | --- | --- | --- | --- | --- | --- | --- | --- |
| 100 to 101 | NS(=O)(=O)NCC1CCc2ccccc2O1 (centres unmarked) [Compound #10, Chroman-2-ylmethylsulfamide] |  |  |  |  |  |  |  |  |  |  |  |  |  |  |  |  |  |  |  |
|  | CN(CCOc1ccc(CC2SC(=O)NC2=O)cc1)c1ccccn1 (centres unmarked) [Rosiglitazone, rosiglitazone, reference compound] | 35.1 | 0.32 ± 0.02 | 43 ± 1.0 | 0.32 ± 0.04 | 2.44 ± 0.11 | 0.154 ± 0.00 | 1.45 ± 0.10 | 21 ± 0.8 | 22 ± 0.9 | 19 ± 0.7 | 170 ± 23 | 11.2 ± 2.3 | 123 ± 8 | 62.5 ± 3.2 | 3.3 ± 0.3 | 1.6 ± 0.3 | 105 ± 23 | 25.4 ± 1.6 | 3.1 ± 0.4 |
